The test system of test [1] is Mycobacterium tuberculosis. The test is described as follows: Reduction in incidence of Mycobacterium tuberculosis coinfection in AIDS patient at 100 mg administered intramuscularly once daily for 5 days. The test is classed as functional. Also on record: scale not given: the % may be the effect or the level left.
The next test deals with Homo sapiens. The test is described as follows: Reduction in cumulative incidence of opportunistic infections in AIDS patient at 100 mg administered intramuscularly once daily for 5 days. Format: functional, organism-based.
For test [2], the system named is Mycobacterium tuberculosis. Briefly: Reduction in incidence of Mycobacterium tuberculosis coinfection in AIDS patient at 100 mg administered intramuscularly once daily for 5 days measured 140 days postdose. Format: functional, organism-based.

Activity calls are given as the source filed them. The calls are words filed in the database; no cut-off is given here.

For one molecule, Activity results are on record in ChEMBL document CHEMBL1156414, “Safety and activity of the immune modulator HE2000 on the incidence of tuberculosis and other opportunistic infections in AIDS patients” (2007).

With `C[C@]12CC[C@H](O)C[C@@H]1CC[C@@H]1[C@@H]2CC[C@]2(C)C(=O)[C@H](Br)C[C@@H]12` [16.ALPHA.-BROMOEPIANDROSTERONE], the Activity in test [1] is recorded as 42.2%. In addition, the result (in the test with Homo sapiens; in test [2]) was Active.
